Experiments:
[1] = biological target: T1, Androgen receptor (Homo sapiens) (UniProt P10275); experiment: Antagonist activity at recombinant androgen receptor (unknown origin) transfected in human PC-3 cells co-transfected with PSA and luciferase at 10 uM incubated for 24 hrs by dual luciferase reporter gene assay relative to control; assay type: cell-based
T1 sequence (whole entry): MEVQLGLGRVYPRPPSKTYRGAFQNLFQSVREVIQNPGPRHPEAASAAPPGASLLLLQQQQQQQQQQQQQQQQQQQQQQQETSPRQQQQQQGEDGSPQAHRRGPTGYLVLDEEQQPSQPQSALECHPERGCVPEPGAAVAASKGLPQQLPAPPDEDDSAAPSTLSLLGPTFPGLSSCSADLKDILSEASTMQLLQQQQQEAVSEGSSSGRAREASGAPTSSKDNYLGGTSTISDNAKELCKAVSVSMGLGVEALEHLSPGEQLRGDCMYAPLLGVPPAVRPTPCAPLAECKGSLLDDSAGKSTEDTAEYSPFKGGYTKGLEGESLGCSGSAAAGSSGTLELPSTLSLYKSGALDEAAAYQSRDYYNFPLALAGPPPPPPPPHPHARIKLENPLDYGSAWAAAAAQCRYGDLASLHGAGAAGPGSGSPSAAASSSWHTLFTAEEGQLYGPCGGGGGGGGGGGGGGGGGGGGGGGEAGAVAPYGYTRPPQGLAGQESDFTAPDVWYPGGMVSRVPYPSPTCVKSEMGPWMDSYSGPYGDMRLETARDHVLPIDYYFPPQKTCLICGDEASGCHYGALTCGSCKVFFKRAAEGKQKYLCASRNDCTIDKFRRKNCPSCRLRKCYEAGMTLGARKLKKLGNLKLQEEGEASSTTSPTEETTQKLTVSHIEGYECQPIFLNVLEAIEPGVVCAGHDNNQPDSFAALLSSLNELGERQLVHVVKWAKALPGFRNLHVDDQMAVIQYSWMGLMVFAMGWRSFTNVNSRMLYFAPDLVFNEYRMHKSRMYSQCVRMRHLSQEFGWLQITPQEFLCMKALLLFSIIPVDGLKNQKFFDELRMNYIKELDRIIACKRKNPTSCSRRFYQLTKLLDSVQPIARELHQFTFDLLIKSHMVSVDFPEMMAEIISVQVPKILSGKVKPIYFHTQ

[2] = Antiproliferative activity against human 22Rv1 cells assessed as reduction in cell growth incubated for 72 hrs by MTT assay; details: H22, 72 h
[3] = biological target: T2, Androgen receptor (Rattus norvegicus) (UniProt P15207); details: filed as antagonist, time 1.0 min
T2 sequence (whole entry): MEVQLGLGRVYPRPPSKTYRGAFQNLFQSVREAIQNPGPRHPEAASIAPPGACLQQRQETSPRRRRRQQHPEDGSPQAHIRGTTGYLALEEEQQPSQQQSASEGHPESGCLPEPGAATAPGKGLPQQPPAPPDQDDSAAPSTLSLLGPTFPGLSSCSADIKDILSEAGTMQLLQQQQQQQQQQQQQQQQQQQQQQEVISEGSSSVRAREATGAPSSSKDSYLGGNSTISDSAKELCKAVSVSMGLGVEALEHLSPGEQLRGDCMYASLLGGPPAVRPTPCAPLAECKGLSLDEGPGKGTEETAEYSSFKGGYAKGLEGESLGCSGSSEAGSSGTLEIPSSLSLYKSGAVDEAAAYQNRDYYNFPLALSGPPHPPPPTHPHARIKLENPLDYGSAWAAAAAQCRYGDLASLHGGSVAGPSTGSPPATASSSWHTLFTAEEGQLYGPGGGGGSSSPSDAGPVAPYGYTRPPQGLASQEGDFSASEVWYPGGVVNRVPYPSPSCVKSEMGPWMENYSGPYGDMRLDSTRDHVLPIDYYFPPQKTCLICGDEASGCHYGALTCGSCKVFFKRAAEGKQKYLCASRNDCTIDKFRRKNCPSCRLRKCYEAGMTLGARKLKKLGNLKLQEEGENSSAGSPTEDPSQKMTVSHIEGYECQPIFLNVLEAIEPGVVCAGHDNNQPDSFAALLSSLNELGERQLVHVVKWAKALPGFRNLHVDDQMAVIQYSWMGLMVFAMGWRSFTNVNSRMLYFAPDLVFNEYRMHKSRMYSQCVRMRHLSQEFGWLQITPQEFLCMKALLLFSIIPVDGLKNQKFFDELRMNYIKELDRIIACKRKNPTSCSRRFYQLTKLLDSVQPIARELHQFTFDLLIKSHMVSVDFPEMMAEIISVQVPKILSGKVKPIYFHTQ

[4] = system: LNCaP; experiment: Antiproliferative activity against human LNCAP cells assessed as reduction in cell growth incubated for 72 hrs by MTT assay
[5] = Effect on glucocorticoid receptor expression in human PC-3 cells at 10 uM incubated for 24 hrs by Western blot analysis; assay type: ADME, cell-based; details: pc-3, 24 h
[6] = biological target: T3, Androgen receptor (Homo sapiens, UniProt P10275); experiment: Antagonist activity at recombinant androgen receptor (unknown origin) transfected in human LNCaP cells co-transfected with PSA and luciferase incubated for 24 hrs by dual luciferase reporter gene assay; assay type: cell-based
T3 sequence (P10275 whole entry): T1 sequence (whole entry)

[7] = Effect on androgen receptor expression in human LNCaP cells at 1 and 10 uM incubated for 24 hrs by Western blot analysis; assay type: ADME, cell-based; details: dose 1-10 µM
[8] = biological target: T4, Glucocorticoid receptor (Homo sapiens) (UniProt P04150); details: filed as antagonist, time 1.0 min
T4 sequence (whole entry): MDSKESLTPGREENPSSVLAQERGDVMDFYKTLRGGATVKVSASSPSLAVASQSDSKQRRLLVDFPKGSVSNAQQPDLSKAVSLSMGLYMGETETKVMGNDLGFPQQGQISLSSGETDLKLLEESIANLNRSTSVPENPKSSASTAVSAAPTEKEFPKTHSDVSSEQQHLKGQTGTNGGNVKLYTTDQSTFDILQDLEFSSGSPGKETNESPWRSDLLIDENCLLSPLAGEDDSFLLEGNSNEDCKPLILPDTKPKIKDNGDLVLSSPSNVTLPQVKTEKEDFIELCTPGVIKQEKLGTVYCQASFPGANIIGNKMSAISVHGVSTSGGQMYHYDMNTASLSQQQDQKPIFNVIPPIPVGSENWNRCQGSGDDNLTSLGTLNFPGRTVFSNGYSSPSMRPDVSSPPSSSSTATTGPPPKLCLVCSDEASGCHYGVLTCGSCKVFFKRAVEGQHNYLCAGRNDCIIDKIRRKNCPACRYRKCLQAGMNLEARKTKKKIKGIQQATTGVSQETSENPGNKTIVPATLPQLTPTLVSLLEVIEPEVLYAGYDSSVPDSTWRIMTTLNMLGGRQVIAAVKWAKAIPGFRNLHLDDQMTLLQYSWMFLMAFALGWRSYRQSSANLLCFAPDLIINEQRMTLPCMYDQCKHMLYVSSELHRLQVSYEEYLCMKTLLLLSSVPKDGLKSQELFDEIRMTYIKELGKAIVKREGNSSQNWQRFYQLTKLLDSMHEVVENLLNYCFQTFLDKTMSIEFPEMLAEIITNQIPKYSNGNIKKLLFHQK

## COc1cc2cc(C(=O)N[C@H](C)C(=O)Nc3nc4ccccc4s3)[nH]c2c(OC)c1OC
[1]
  inhibition: > 20%

## COc1ccccc1[C@H]1[C@H](Oc2cccc(C#N)c2)C(=O)N1Cc1cccc(N2CCCC2=O)c1
[1]
  inhibition: > 20%

## CNC(=O)c1ccc(N2C(=S)N(c3ccc(C#N)c(C(F)(F)F)c3)C(=O)C2(C)C)cc1F [ENZALUTAMIDE]
[2]
  IC50: > 40 µM
[3]
  Kapp: 24 µM
[4]
  IC50: 7.9 µM

## COc1cccc(-c2ccc(N3CCN(C(=O)CN(Cc4ccccc4)C(=O)c4ccccc4C)CC3)nn2)c1
[1]
  inhibition: > 20%

## Cc1nc(-c2ccc(C(C)C)c(S(=O)(=O)Nc3cccc(C#N)c3)c2)cs1
[1]
  inhibition: > 20%

## NC(=O)c1ccn(-c2cccc(NC(=O)C3(NC(=O)NCc4ccccc4)CCCC3)c2)n1
[1]
  inhibition: > 20%

## COc1ccc([C@H](NC(=O)c2cccc(S(=O)(=O)N3C[C@H](C)C[C@@H](C)C3)c2)c2nccn2C)cc1
[1]
  inhibition: > 20%

## CCOC(=O)c1ccc(NC(=O)c2cccc(S(=O)(=O)N3CCCc4ccccc43)c2)s1
[5]
  Activity: Non-Toxic
[6]
  IC50: 2.03 µM
[3]
  Kapp: 15 µM
[7]
  Activity: Non-Toxic

## CCOC(=O)C1CCN(C(=O)Cc2ccc(N(Cc3ccccc3)C(=O)COc3ccccc3)cc2)CC1
[1]
  inhibition: > 20%

## CCc1ccc(-c2nn(C)c(=O)c3c2CCCC3)cc1S(=O)(=O)NCc1cccc(OC)c1
[1]
  inhibition: > 20%

## CC#C[C@]1(O)CC[C@H]2[C@@H]3CCC4=CC(=O)CCC4=C3[C@@H](c3ccc(N(C)C)cc3)C[C@@]21C
[8]
  Kapp: 32 µM

Reference: ChEMBL document CHEMBL4665623, “Rational drug design for androgen receptor and glucocorticoids receptor dual antagonist” (Eur J Med Chem, 2019)
